The test system of one assay is IFN-γ. The assay can be described thus: In vitro IFN-γ ELISPOT assay using PBMCs and immature DCs. The format is cell-based, human. To be noted: 100 ng/ml glycolipid, 22-26 hours co-culture with immature DCs. How it is done:
CD14+ cells were isolated from leukopaks, using magnetic beads (Miltenyi biotec, Auburn, Calif.) coupled to an anti-CD14 monoclonal antibody. Immature dendritic cells (DCs) were then generated from the CD14+ cells after a three-day incubation in the presence of 300 U/ml GM-CSF (R&D systems, Minneapolis, Minn.) and 100 U/ml IL-4 (R&D systems, Minneapolis, Minn.). CD14-cells were used as Peripheral Blood Mononuclear Cells (PBMCs) for the following experiments.
96 well nitrocellulose plates (Milititer HA, Millipore) were coated with 10 μg/ml of anti-human interferon γ mAb (Mabtech, Ohio), contained in 75 μl of PBS. After overnight incubation at room temperature, the wells were washed repeatedly and blocked with culture medium for 1 hour at 37° C. Following irradiation with 3000 rads, 5×10^4 immature dendritic cells were co-cultured with 5×10^5 of syngeneic CD14− PBMCs in the presence of 100 ng/ml of various glycolipids (i.e., GCK109 [A-1 trans-conformer], GCK151 [A-1 cis-conformer], GCK127 [A-2], GCK152 [A-7], and control compounds CRONY=α-C-GalCer and KRN=α-GalCer) in the ELISPOT plate for 22-26 hours at 37° C. and 5% CO2. […] After 10 to 15 minutes, the number of spots corresponding to IFN-γ secreting cells was determined using a stereomicroscope. […]

In another assay the test system is IL-4. The assay can be described thus: In vitro IL-4 ELISPOT assay using PBMCs and immature DCs. The format is cell-based, human. As to conditions: 100 ng/ml glycolipid, 22-26 hours co-culture with immature DCs.

Turning to `CCCCCCCCCCCCCCCCCC/C=C\CCCCCCCCC(=O)N[C@@H](/C=C/[C@H]1OC(CO)[C@H](O)[C@H](O)C1O)[C@H](O)[C@H](O)CCCCCCCCCCCCCC` (stereo partly shown) [GCK151], in the assay with IFN-γ, the “frequency of PBMCs secreting IFN-γ (ELISPOT), compared with KRN” value is “high frequency”. In addition, the “frequency of PBMCs secreting IL-4 (ELISPOT), compared with KRN” value in the assay with IL-4 was “high frequency”.

For `CCCCCCCCCCCCCC[C@@H](O)[C@@H](O)[C@H](/C=C/[C@H]1OC(CO)[C@H](O)[C@H](O)C1O)NC(=O)CCCCCCCc1ccccc1` (stereo partly shown) [A-7], the “frequency of PBMCs secreting IFN-γ (ELISPOT), compared with KRN” value in the assay on IFN-γ is “high frequency”. Also, in the assay on IL-4, the “frequency of PBMCs secreting IL-4 (ELISPOT), compared with KRN” value is given as “high frequency”.
